Measurements published in patent US20180338922A1, “FIXED DOSE FORMULATIONS” (Esperion Therapeutics, Inc., priority 2017, published 2018).
Entries after “also recorded” stand apart in the source; their conditions may differ. Where two headings read alike, the source gives them in different places.

Tests used:
[1] = pKa by potentiometric titration; type: physicochemical; details: determined by potentiometric titration
[2] = cited from earlier work
[3] = Log partition coefficient (log p); type: physicochemical
[4] = Multimedia dissolution of Bempedoic acid tablets (USP Apparatus-II, 50 rpm, 900 mL); type: physicochemical; details: QC medium (phosphate buffer, pH 6.8); in 20 minutes
Experimental: Dissolution characterization was performed in accordance with the dissolution method detailed in IND #106,654. The dissolution conditions were 900 mL phosphate buffer, pH 6.8, using Apparatus-II at 50 rpm.

[5] = Flowability of the APIs (compressibility index, Hausner's ratio); type: physicochemical; details: drug substance
[6] = Forced degradation of bempedoic acid; type: physicochemical
Experimental: Forced degradation of bempedoic acid was carried out to study the impurity profile, degradation pathway, and to facilitate the development of a stability-indicating method. In addition, knowledge obtained from the forced degradation studies was used during formulation and process design and development to prevent impurities from being generated. The specified stress conditions were intended to achieve 5-20% degradation. The stressed samples were compared to the unstressed sample (control).

[7] = Drug-drug compatibility study (HPLC, binary mixture 1:18 ezetimibe:bempedoic acid, solid state); type: physicochemical; details: for Assay (Bempedoic Acid): in % (unit assumed)
Experimental: The fixed dose combination product under development is a novel combination of two drug substances and therefore determination of compatibility of the actives with each other was considered to be critical. The compatibility of the actives was assessed through HPLC analysis of binary mixtures of the drug substances at a ratio 1:18 (ezetimibe:bempedoic acid) in the solid state. Samples were stored at 60° C. and 40° C./75% RH in both open and closed containers for 2 weeks and 4 weeks respectively. Degradation products were evaluated for open (stressed) samples of accelerated condition (40° C./75% RH) and 60° C. Assay for the samples was also carried out.

[8] = QC dissolution of ezetimibe component (0.45% SLS in 0.05 M acetate buffer pH 4.5, Apparatus-II, 50 rpm, 500 mL); type: physicochemical; details: QC dissolution medium, within 15 minutes
Experimental: Drug release profiles for both actives were estimated using common chromatographic conditions with different injection volumes.
The goal of Formulation Development Study #2 was to optimize the concentration of binder used for the granulation of ezetimibe. Wet granulation was used for the preparation of ezetimibe granules. Binder solution, povidone with SLS, and ezetimibe were used for the granulation of dry-mix powder blend. One trial with a higher concentration of povidone (3 mg/tablet) and another with a lower concentration (1 mg/tablet) were performed to observe the impact of binder concentration on dissolution. Ezetimibe granules were mixed with Bempedoic acid granules separately and compressed into a monolayer tablet for both trials.
Dissolution Profile of FDC test product (ezetimibe component) in QC media is given in Table 52, Table 53, FIG. 15, and FIG. 16.

[9] = Drug substance attributes (solubility, permeability, BCS class, hygroscopicity); type: physicochemical
[10] = Forced degradation of ezetimibe; type: physicochemical
[11] = 18.48 mg of solid in Sun cabinet 765 W/m2 at 35° C. for 24 hrs
[12] = 21.41 mg of solid + Heating at 80° C. for 24 hrs
[13] = 5.0 mL stock solution + Heating at 80° C. for 30 min
[14] = 5.0 mL stock solution in Sun cabinet 765 W/m2 at 35° C. for 15 hrs

Which pKa [1] does the source give for CC(C)(CCCCCC(O)CCCCCC(C)(C)C(=O)O)C(=O)O [Bempedoic acid, 8-hydroxy-2,2,14,14-tetramethylpentadecanedioic acid] here?
Its pKa is 4.88.

And the pKa ([1]; second value)?
Its pKa is 5.6.

And the aqueous solubility [2]?
Its aqueous solubility is “pH dependent”.

And the aqueous solubility ([2]; listed as Bempedoic acid (ETC-1002))?
Its aqueous solubility is “poorly soluble in water”.

And the logP ([3]; octanol/pH 3.5 buffer, pH 3.5)?
Its logP is 4.38.

What about the logP ([3]; octanol/water) of the same molecule?
The logP was 4.33.

And the drug released [4]?
The drug released was “more than 85%”.

What about the “Hausner's ratio” value [5] of the same molecule?
The value was 1.48.

What about the compressibility index [5] of the same molecule?
Its compressibility index is 32.6%.

What about the Assay ([6]; Non stressed bempedoic acid) of the same molecule?
The Assay was 99.0%.

What about the Assay ([6]; Photo, solid state) of the same molecule?
The Assay was 99.2%.

And the Assay ([6]; Thermal, solid state 105° C.)?
Its Assay is 95.8%.

And the Assay ([6]; Thermal, solution 105 C)?
Its Assay is 97.7%.

What about the “stability in the stress test study” value ([6]; all studied stress conditions) of the same molecule?
Its value is “stable at all studied conditions”.

And the Assay ([6]; exposed to H2O2)?
Its Assay is 100.4%.

What about the Assay ([6]; exposed to HCl) of the same molecule?
The Assay was 98.7%.

What about the Assay ([6]; exposed to NaOH, differs from expected ~100% due to non-quantitative neutralization prior to injection (footnote 2)) of the same molecule?
The Assay was 117.3(2) %.

And the “Assay (Bempedoic Acid)” value ([7]; 2W 60°)?
The value was 100.2.

And the “Assay (Bempedoic Acid)” value ([7]; 4W 40° C./75% RH Open)?
Its value is 103.7.

And the unspecified impurity ([7]; Initial, 2W 60°, 4W 40° C./75%)?
Its unspecified impurity is “No unspecified impurity generated”.

What about the “Assay (Bempedoic Acid)” value ([7]; Initial) of the same molecule?
Its value is 101.7.

Which pKa [1] does the source give for O=C1[C@H](CC[C@H](O)c2ccc(F)cc2)[C@@H](c2ccc(O)cc2)N1c1ccc(F)cc1 [Ezetimibe, (3R,4S)-1-(4-fluorophenyl)-3-[(3S)-3-(4-fluorophenyl)-3-hydroxypropyl]-4-(4-hydroxyphenyl) azetidin-2-one] here?
The pKa was 9.75.

And the aqueous solubility [2]?
Its aqueous solubility is “insoluble in aqueous media at all pH; also recorded: poorly soluble in water”.

And the logP ([3]; n-octanol/pH 7 aqueous phase, n-octanol: pH 7)?
The logP was 4.51.

What about the logP ([3]; pH 1, n-octanol: 0.1N HCl) of the same molecule?
Its logP is 4.52.

And the “drug release (ezetimibe)” value [8]?
The value was “more than 85%”.

And the “Hausner's ratio” value [5]?
The value was 1.42.

And the compressibility index [5]?
The compressibility index was 29.60%.

And the BCS class [9]?
Its BCS class is “Ezetimibe is BCS class II compounds having low”.

What about the Solubility [9] of the same molecule?
Its Solubility is “low solubility”.

What about the Assay (EZT) ([7]; 2W 60°) of the same molecule?
The Assay (EZT) was 97.6%.

What about the “EZT 21 (Keto impurity)” value ([7]; 2W 60°) of the same molecule?
The value was 0.04.

What about the EZT cyclic ether ([7]; 2W 60°) of the same molecule?
The EZT cyclic ether was 0.12%.

What about the SMUI ([7]; 2W 60°) of the same molecule?
The SMUI was 0.17%.

What about the Total impurities ([7]; 2W 60°) of the same molecule?
The Total impurities was 0.33%.

And the Assay (EZT) ([7]; 4W 40° C./75% RH Open)?
Its Assay (EZT) is 99.5%.

And the “EZT 21 (Keto impurity)” value ([7]; 4W 40° C./75% RH Open)?
Its value is 0.38.

What about the EZT cyclic ether ([7]; 4W 40° C./75% RH Open) of the same molecule?
Its EZT cyclic ether is 0.9%.

What about the SMUI ([7]; 4W 40° C./75% RH Open) of the same molecule?
Its SMUI is 0.19%.

What about the Total impurities ([7]; 4W 40° C./75% RH Open) of the same molecule?
Its Total impurities is 2.34%.

And the Assay (EZT) ([7]; Initial)?
Its Assay (EZT) is 99.3%.

What about the “EZT 21 (Keto impurity)” value ([7]; Initial) of the same molecule?
Its value is 0.03.

What about the SMUI ([7]; Initial) of the same molecule?
Its SMUI is 0.03%.

And the Total impurities ([7]; Initial)?
The Total impurities was 0.06%.

What about the “% Degradation, Total (unspecified and specified)” value (“% Degradation, Total” for short) [10, 11] of the same molecule?
Its value is 0.22%.

And the Assay [10, 11]?
The Assay was 98.0%.

And the “% Degradation, Total” value [10, 12]?
The value was 0.14%.

What about the Assay [10, 12] of the same molecule?
Its Assay is 96.3%.

What about the Assay ([10]; 5.0 mL stock solution + 0.1 mL 1N NaOH at RT for 30 min) of the same molecule?
Its Assay is 83.1%.

And the Assay ([10]; 5.0 mL stock solution + 1 mL 1N HCl at RT for 24 hrs)?
The Assay was 97.9%.

What about the Assay ([10]; 5.0 mL stock solution + 1 mL H2O2 30% at RT for 24 hrs) of the same molecule?
Its Assay is 97.0%.

What about the “% Degradation, Total” value [10, 13] of the same molecule?
Its value is 5.67%.

And the Assay [10, 13]?
Its Assay is 93.1%.

What about the “% Degradation, Total” value [10, 14] of the same molecule?
The value was 1.57%.

And the Assay [10, 14]?
The Assay was 95.0%.

What about the “% Degradation, Total” value ([10]; Non stressed ezetimibe) of the same molecule?
Its value is 0.12%.

What about the Assay ([10]; Non stressed ezetimibe) of the same molecule?
Its Assay is 100.0%.

What about the “stability classification from forced degradation” value ([10]; exposure to alkali (NaOH) and peroxide (H2O2)) of the same molecule?
Its value is “sensitive to alkali and peroxide”.

What about the “stability in the solid form” value ([10]; heat and photo irradiation, solid form) of the same molecule?
Its value is “stable to heat and photo irradiation”.
